Measurements published in patent publication US20130029983A1, “AMINOTHIENOPYRIDAZINE INHIBITORS OF TAU ASSEMBLY” (priority 2009, published 2013).

Columns and labels:
full-length tau (tau40) = target: T1, full-length tau (tau40) (Homo sapiens, UniProt P10636); test: Tau40 fibrillization sedimentation assay; type: biochemical; conditions: SDS-PAGE of soluble and insoluble fractions after centrifugation; for Emax: read-out: Tau40 Sed. Assay, maximal percent inhibition of tau40 fibrillization
T1 construct: Full length tau (Tau40; amino acids 1-441); made in house
Protocol: The determination of compound-induced effects on the amount of tau that remains soluble upon centrifugation, and EM visualization of tau species following incubation with test compounds, were as previously described (Crowe, A., Ballatore, C., Hyde, E., Trojanowski, J. Q., and Lee, V. M. Y. (2007) Biochemical and Biophysical Research Communications 358, 1-6). […]

[1] = Brain and plasma drug levels 1 h after i.p. administration (LC-MS/MS); type: in vivo; conditions: mice, 1 h after i.p. 5 mg/Kg
Protocol: Test compounds underwent preliminary evaluations of brain penetration, in which 5 mg/Kg of each compound was administered intraperitoneally (i.p.) to a group of three normal mice; drug levels in brain and plasma were determined at a single time-point (1 h) by LC-MS/MS using pre-validated calibration curves. […] However, both esters appeared to have relatively short half-lives in plasma, as indicated by the limited amount of parent drug detected after 1 h from administration of the compounds. […] CNDR-51362 was selected for full PK analysis in which brain and plasma drug levels were determined at six time points (i.e., 30 min, 1 h, 2 h, 4 h, 8 h, and 16 h). The results from this experiment, illustrated in FIG. 6A, confirmed that the total B/P exposure ratio over 16 h is 1.6. […] Finally, in order to investigate the potential for ATPZ congeners to be orally administered, we evaluated brain and plasma level of CNDR-51362 and CNDR-51349 after oral administration of 5 mg/Kg.
Brain tissue was homogenized in 10 mM ammonium acetate, pH 5.7 (1:2; w/v) using a handheld sonic homogenizer. Plasma was obtained from blood that was collected into a 1.5 mL tube containing 0.5M EDTA solution and subjected to centrifugation for 10 min. at 4500 g at 4° C. Aliquots (50 μL) of brain homogenate or plasma were mixed with 0.2 mL of acetonitrile, centrifuged at 15,000 g, and the resulting supernatants were used for subsequent LC-MS/MS analysis. The LC-MS/MS system was comprised of an Aquity HPLC and a TQ MS that was controlled using MassLynx software (Waters Corporation, Milford, Mass., USA). Compounds were detected using multiple reaction monitoring (MRM) of their specific collision-induced ion transitions. Samples (5 μL) were separated on an Aquity BEH C18 column (1.7 μm, 2.1×50 mm) at 35° C. Operation was in positive electrospray ionization mode, with mobile phase A of 0.1% (v/v) formic acid, and B of either acetonitrile or methanol with 0.1% (v/v) formic acid at a flow rate of 0.6 mL/min using a gradient from 5% to 95% B over two min., followed by wash and re-equilibration steps. The MS was operated with a desolvation temperature of 450° C. and a source temperature of 150° C. Desolvation and source nitrogen gas flows were 900 L/hr and 50 L/hr, respectively. Source and MS/MS voltages were optimized for each compound using the MassLynx auto tune utility. Standard curves were generated for each compound from brain homogenate and plasma samples that had compound added at 4, 40, 400 and 4000 ng/mL and extracted as above. Peak areas were plotted against concentration and a 1/x weighted linear regression curve was used to quantify the tissue-derived samples using the average peak area from triplicate injections.

[2] = Turbidimetric solubility in fibrillization buffer; type: physicochemical; conditions: 100 mM NaOAc pH 7.0 fibrillization buffer, 1% DMSO
Protocol: Compounds were serially diluted in DMSO to achieve a 2.5 fold dilution series from 20 mM down 8 points to […] on a 384-well master plate (Costar 3672). Aliquots (2 μL) were transferred to a clear 96-well assay plate (Fisher 12-565-501) containing 198 μL fibrillization buffer (100 mM NaOAc pH 7.0) for a 100-fold dilution (200 μM down to 0.3 μM). The plate was incubated with agitation for 2.5 h, and the absorbance at 550, 600, 650 and 700 nm was measured on a Spectramax M5 spectrophotometer. DMSO (1%) in fibrillization buffer served as a control that was subtracted from each data point. The absorbances were averaged and the concentration at which the average absorbance rose above 0.03 AU was an indication of insoluble compound, with solubility limits reported as the previous concentration in the dilution series.

K18PL tau = target: T2, K18PL tau (Homo sapiens, UniProt P10636, P618L); test: K18PL tau centrifugation (sedimentation) assay, SDS-PAGE densitometry; type: biochemical; conditions: for Emax: SDS-PAGE of soluble and insoluble fractions after centrifugation, read-out: K18PL Sed. Assay, maximal percent inhibition of K18PL fibrillization
T2 construct: (K18PL; amino acids 244-369); made in house
In short: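 Heparin-induced fibrillization of K18PL tau in sodium acetate buffer with test compound; mixtures were centrifuged and soluble versus insoluble K18PL quantified by SDS-PAGE densitometry. A repeat run centrifuged DMSO- and compound-treated mixtures for 30 min at time zero to remove pelletable material before incubation.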

T1 sequence (P10636 1-441 isoform P10636-8): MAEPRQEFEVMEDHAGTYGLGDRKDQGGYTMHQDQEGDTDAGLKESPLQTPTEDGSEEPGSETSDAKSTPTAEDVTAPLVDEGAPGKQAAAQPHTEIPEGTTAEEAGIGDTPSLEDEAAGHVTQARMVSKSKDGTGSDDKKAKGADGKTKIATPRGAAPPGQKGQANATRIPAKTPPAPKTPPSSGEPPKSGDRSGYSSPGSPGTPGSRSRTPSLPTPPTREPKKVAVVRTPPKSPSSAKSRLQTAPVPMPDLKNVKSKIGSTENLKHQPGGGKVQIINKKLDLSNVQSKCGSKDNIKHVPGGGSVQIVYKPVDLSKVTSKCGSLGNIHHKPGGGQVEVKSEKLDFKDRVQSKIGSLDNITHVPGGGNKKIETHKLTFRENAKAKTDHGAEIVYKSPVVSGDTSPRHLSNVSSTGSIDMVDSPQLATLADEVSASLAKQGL
T2 sequence (P10636 561-686 P618L): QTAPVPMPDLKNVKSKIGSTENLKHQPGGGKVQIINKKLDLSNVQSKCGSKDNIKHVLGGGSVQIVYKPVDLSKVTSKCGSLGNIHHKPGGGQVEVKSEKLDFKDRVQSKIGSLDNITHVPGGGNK

Row | Compound | Tau40 Sed. Assay, maximal percent inhibition of tau40 fibrillization (full-length tau (tau40)) [%] | Emax (full-length tau (tau40)) [%] | B/P, ratio between brain/plasma drug level [1] | Water Solubility [2] [µM] | Emax (K18PL tau) [%] | B/P, ratio between brain/plasma drug level ([1]; 5 mg/kg) | B/P, ratio between brain/plasma drug level ([1]; listed as CNDR-51346, 5 mg/kg) | Tau Cent. Assay % Soluble (K18PL tau; Table 3, K18PL tau centrifugation assay) [%]
1 | Nc1scc2c(C(=O)NC3CC3)nn(-c3ccc(Cl)cc3)c(=O)c12 [CNDR-51362, 5-Amino-3-(4-chlorophenyl)-N-cyclopropyl-4-oxo-3,4-dihydrothieno[3,4-d]pyridazine-1-carboxamide] | 58 | 50 to 60 | 1.6 | 32 | 69 |  |  | 
2 | CCOC(=O)c1nn(-c2ccc(Cl)cc2)c(=O)c2c(N)scc12 [Compound 17, Ethyl 5-amino-3-(4-chlorophenyl)-4-oxo-3,4-dihydrothieno[3,4-d]pyridazine-1-carboxylate] | 48 | 50 to 60 |  | 13 | 70 | 3.3 | comparatively higher B/P ratio | 62
